From publication PMC11882969 (Nature Communications, 2025)
Several values for one entry are separate records, joined by “and”; a condition that tells them apart may be missing. Identical values can stand only once. Like-named read-outs stand apart in the source and are kept apart here.

Target: hCB1 (Homo sapiens, UniProt P21554)
Test: bioSensAll ebBRET signaling profiling, hCB1
Assay type: cell-based
Parameters: host or cells: HEK293SL cells, transient PEI transfection
Settings: for Gi1 hCB1 response: Gi1 biosensor; for Gi1 hCB1 / GoB hCB1: single replicate values, FigS6a; for Emax [95% CI]: normalized to CP-55,940; for EC50: read-out: EC50 [95% CI]

hCB1, sequence (P21554 whole entry): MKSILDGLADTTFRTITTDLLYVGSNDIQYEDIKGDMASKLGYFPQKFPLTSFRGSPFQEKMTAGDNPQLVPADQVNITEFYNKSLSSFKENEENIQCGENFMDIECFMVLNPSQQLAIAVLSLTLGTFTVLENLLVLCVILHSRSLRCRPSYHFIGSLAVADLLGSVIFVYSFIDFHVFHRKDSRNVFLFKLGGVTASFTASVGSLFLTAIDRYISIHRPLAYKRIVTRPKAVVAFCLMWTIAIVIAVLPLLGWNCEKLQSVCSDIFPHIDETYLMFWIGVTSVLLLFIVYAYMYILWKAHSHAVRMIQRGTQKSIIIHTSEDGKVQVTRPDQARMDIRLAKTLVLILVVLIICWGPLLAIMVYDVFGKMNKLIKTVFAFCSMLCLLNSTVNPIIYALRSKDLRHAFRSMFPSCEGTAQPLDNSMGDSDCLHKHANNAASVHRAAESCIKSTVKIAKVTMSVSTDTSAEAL

Cc1cc(C(=O)N2CC3(CCC3)[C@H]2[C@H]2CCCO2)nn1-c1cccc(C(F)(F)F)c1 [‘1651]
Gi1 hCB1 response (Log [Compound] (M) -4.22186): 137.59
Gi1 hCB1 response (Log [Compound] (M) -4.63927): 96.9225
Gi1 hCB1 response (Log [Compound] (M) -5.47381): 59.4112
Gi1 hCB1 response (Log [Compound] (M) -5.89285): 34.5455
Gi1 hCB1 response (Log [Compound] (M) -6.31878): 22.4595
Gi1 hCB1 response (Log [Compound] (M) -6.72585): 13.9098
Gi1 hCB1 response (Log [Compound] (M) -7.14267): 3.39
Gi1 hCB1 response (Log [Compound] (M) -7.55284): 4.644
Gi1 hCB1 response (Log [Compound] (M) -8): -4.488
Gi1 hCB1 response (Log [Compound] (M) -8.22186): -3.346
Gi1 hCB1 response (Log [Compound] (M) -8.39794): -8.628
Gi1 hCB1 response (Log [Compound] (M) -8.68787): -2.138
Gi1 hCB1 response (Log [Compound] (M) -9.15521): 13.7307
Gi1 hCB1 response (Log [Compound] (M) -9.61989): 0.5704
Gi1 hCB1 response (Log [Compound] (M) -10.0969): -10.7993
Gi1 hCB1 response (Log [Compound] (M) -10.5529): 1.622
Gi1 hCB1 response (Log [Compound] (M) -11.0177): 3.525
Gi1 hCB1 response (Log [Compound] (M) -11.4949): -1.466
Gi1 hCB1 response (Log [Compound] (M) -11.9208): -11.3141
Gi1 hCB1 response (Log [Compound] (M) -12.3979): -0.1682
Gi1 hCB1 response (Log [Compound] (M) -12.8861): 6.054
Gi1 hCB1 response (Log [Compound] (M) -13, individual replicate values): -5.092 and 7.285
Gi1 hCB1 (Log [Compound] (M) -4.22186): 86.9769
GoB hCB1 (Log [Compound] (M) -4.22186): 103.232
Gi1 hCB1 (Log [Compound] (M) -4.63927): 76.9098
GoB hCB1 (Log [Compound] (M) -4.63927): 73.1818
Gi1 hCB1 (Log [Compound] (M) -5.05788): 64.2374
GoB hCB1 (Log [Compound] (M) -5.05788): 61.4566
Gi1 hCB1 (Log [Compound] (M) -5.47381): 51.5496
GoB hCB1 (Log [Compound] (M) -5.47381): 47.4476
Gi1 hCB1 (Log [Compound] (M) -5.89285): 27.4072
GoB hCB1 (Log [Compound] (M) -5.89285): 30.9928
Gi1 hCB1 (Log [Compound] (M) -6.31878): 15.521
GoB hCB1 (Log [Compound] (M) -6.31878): 20.7963
Gi1 hCB1 (Log [Compound] (M) -6.72585): 7.211
GoB hCB1 (Log [Compound] (M) -6.72585): 12.2902
Gi1 hCB1 (Log [Compound] (M) -7.14267): 2.849
GoB hCB1 (Log [Compound] (M) -7.14267): 6.553
Gi1 hCB1 (Log [Compound] (M) -7.55284): 1.862
GoB hCB1 (Log [Compound] (M) -7.55284): 3.478
Gi1 hCB1 (Log [Compound] (M) -8): 1.7386
GoB hCB1 (Log [Compound] (M) -8): 4.539
Gi1 hCB1 (Log [Compound] (M) -8.22186): 1.384
GoB hCB1 (Log [Compound] (M) -8.22186): -0.5679
Gi1 hCB1 (Log [Compound] (M) -8.39794): 3.142
GoB hCB1 (Log [Compound] (M) -8.39794): 1.554
Gi1 hCB1 (Log [Compound] (M) -8.68787): 2.895
GoB hCB1 (Log [Compound] (M) -8.68787): -1.036
Gi1 hCB1 (Log [Compound] (M) -9.15521): 0.4282
GoB hCB1 (Log [Compound] (M) -9.15521): -2.079
Gi1 hCB1 (Log [Compound] (M) -9.61989): 2.402
GoB hCB1 (Log [Compound] (M) -9.61989): 0.2413
Gi1 hCB1 (Log [Compound] (M) -10.0969): 1.754
GoB hCB1 (Log [Compound] (M) -10.0969): 3.298
Gi1 hCB1 (Log [Compound] (M) -10.5529): 4.329
GoB hCB1 (Log [Compound] (M) -10.5529): 1.32
Gi1 hCB1 (Log [Compound] (M) -11.0177): 1.137
GoB hCB1 (Log [Compound] (M) -11.0177): 2.867
Gi1 hCB1 (Log [Compound] (M) -11.4949): 1.492
GoB hCB1 (Log [Compound] (M) -11.4949): 0.4571
Gi1 hCB1 (Log [Compound] (M) -11.9208): 0.7057
GoB hCB1 (Log [Compound] (M) -11.9208): 3.784
Gi1 hCB1 (Log [Compound] (M) -12.3979): 3.419
GoB hCB1 (Log [Compound] (M) -12.3979): 6.338
Gi1 hCB1 (Log [Compound] (M) -12.8861): 4.113
GoB hCB1 (Log [Compound] (M) -12.8861): 5.3306
Gi1 hCB1 (Log [Compound] (M) -13): -0.9593 and 2.509
GoB hCB1 (Log [Compound] (M) -13): 4.899 and 2.867
pEC50 [95% CI] (hCB1 Gi1): 5.5 [5.4 – 5.6]
Emax [95% CI] (hCB1 Gi1): 89 [84 – 94]
pEC50 [95% CI] (hCB1 GoB): 4.7 [4.1 – 5.4]
Emax [95% CI] (hCB1 GoB): 152 [94 – 208]
EC50 (hCB1 Gi1): 3.03 µM
EC50 (hCB1 GoB): 19.8 µM
